We go through 24 molecules from patent publication US20190375708A1 (VenatoRx Pharmaceuticals, Inc., priority 2018, published 2019).

pEC50: −log10 of the molar value. Some results are limits rather than exact numbers.

For data set [1], the system named is HBV replication in HepAD38 cells. Nature of the data set: Anti-HBV replication assay in HepAD38 cells (QPCR of extracellular HBV DNA). It is filed as cell-based, HBV (genotype D, serotype ayw). The conditions noted are these: Hepatitis B virus, 168 h, 7 days incubation, extracellular HBV DNA by QPCR, read-out: Anti-HBV EC50. The method, boiled down:
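Read-out is QPCR of HBV DNA released into culture supernatant, converted to percent of vehicle control and fitted to give EC50. Cells were HepAD38 induced by tetracycline removal and dosed […] for 7 days.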

A short description of data set [2]: In vitro cytotoxicity assay (MTT cell viability) in HepG2 cells. It is filed as cell-based, human. The settings on record: human. The method, boiled down:
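Using MTT conversion as the viability measure, HepG2 cells were incubated with compounds for 7 days (30 μM to 1.0 nM). Absorbance at 492 nm was normalized to vehicle and fitted to give CC50.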

Turning to `Cc1cc(NC(=O)c2c(C)c(C(=O)C(=O)NC3(C)CCN(C(=O)Nc4ccc(F)c(F)c4)CC3)n(C)c2C)ccc1F` [Example 707, N-(3,4-difluorophenyl)-4-(2-(4-((4-fluoro-3-methylphenyl)carbamoyl)-1,3,5-trimethyl-1H-pyrrol-2-yl)-2-oxoacetamido)-4-methylpiperidine-1-carboxamide], the pEC50 in data set [1] is > 7.30. In data set [2], the CC50 at 7 days was in the range of 500 to 4990 nM.

In the case of `Cc1cc(NC(=O)c2c(C)c(C(=O)C(=O)N[C@]3(C)C[C@H](O)C3)n(C)c2C)ccc1F` [Example 267, N-(4-fluoro-3-methylphenyl)-5-(2-(((1s,3s)-3-hydroxy-1-methylcyclobutyl)amino)-2-oxoacetyl)-1,2,4-trimethyl-1H-pyrrole-3-carboxamide], the pEC50 in data set [1] is > 7.30. Also, in data set [2], the CC50 at 7 days is > 30000 nM.

In the case of `Cc1c(C(=O)Nc2cc(F)c(F)c(F)c2)c(Cl)c(C(=O)C(=O)NCC(C)(C)O)n1C` [Example 372, 4-chloro-5-(2-((2-hydroxy-2-methylpropyl)amino)-2-oxoacetyl)-1,2-dimethyl-N-(3,4,5-trifluorophenyl)-1H-pyrrole-3-carboxamide], the pEC50 in data set [1] is > 7.30. Further, the CC50 at 7 days in data set [2] lay in the range of 500 to 4990 nM.

Consider `Cc1cc(NC(=O)c2c(C)c(C(=O)C(=O)N[C@@H](C)CO)n(C)c2C)ccc1F` [Example 217, (S)-N-(4-ffluoro-3-methylphenyl)-5-(2-((1-hydroxypropan-2-yl)amino)-2-oxoacetyl)-1,2,4-trimethyl-1H-pyrrole-3-carboxamide], for which the negative-log EC50 (pEC50) in data set [1] was > 7.30. The CC50 at 7 days in data set [2] is > 30000 nM.

As for `Cc1cc(NC(=O)c2c(C)c(C(=O)C(=O)NC(C)(C)CO)n3c2CCCC3)ccc1F` [Example 436, N-(4-fluoro-3-methylphenyl)-3-(2-((1-hydroxy-2-methylpropan-2-yl)amino)-2-oxoacetyl)-2-methyl-5,6,7,8-tetrahydroindolizine-1-carboxamide], the pEC50 in data set [1] was 6.30 to 7.30. Besides, the CC50 at 7 days in data set [2] was > 30000 nM.

With `CCOC(=O)[C@@H](CO)NC(=O)C(=O)c1c(C)c(C(=O)Nc2ccc(F)c(C)c2)c(C)n1C` [Example 26, ethyl (2-(4-((4-fluoro-3-methylphenyl)carbamoyl)-1,3,5-trimethyl-1H-pyrrol-2-yl)-2-oxoacetyl)-D-serinate], the pEC50 in data set [1] was > 7.30. For the same molecule, in data set [2], the half-maximal cytotoxic concentration (CC50) at 7 days is > 30000 nM.

Regarding `Cc1cc(NC(=O)c2c(C)c(C(=O)C(=O)N[C@H]3CCNC3=O)n(C)c2C)ccc1F` [Example 671, (S)-N-(4-fluoro-3-emthylphenyl)-1,2,4-trimethyl-5-(2-oxo-2-((2-oxopyrroldin-3-yl)amino)acetyl)-1H-pyrrole-3-carboxamide], the pEC50 in data set [1] is > 7.30. The CC50 at 7 days in data set [2] was > 30000 nM.

In the case of `Cc1cc(NC(=O)c2c(Cl)c(C(=O)C(=O)N[C@H]3CCC[C@H]3O)n3c2CCCC3)ccc1F` [Example 506, 2-chloro-N-(4-fluoro-3-methylphenyl)-3-(2-(((1S,2R)-2-hydroxycyclopentyl)amino)-2-oxoacetyl)-5,6,7,8-tetrahydroindolizine-1-carboxamide], in data set [1], the pEC50 is 6.00 to 6.30. Moreover, the CC50 at 7 days in data set [2] lay in the range of 5000 to 30000 nM.

Consider `CC[C@H](C)NC(=O)C(=O)c1c(C)c(C(=O)Nc2cnc(F)c(C)c2)c2n1CCCC2` [Example 475, (S)-3-(2-(sec-butylamino)-2-oxoacetyl)-N-(6-fluoro-5-methylpyridin-3-yl)-2-methyl-5,6,7,8-tetrahydroindolizine-1-carboxamide], for which the pEC50 in data set [1] was 6.00 to 6.30. The CC50 at 7 days in data set [2] was > 30000 nM.

Regarding `Cc1c(C(=O)Nc2cc(F)c(F)c(F)c2)c(C)n(C)c1C(=O)C(=O)NC1CCC(F)(F)CC1` [Example 324, 5-(2-((4,4-difluorocyclohexyl)amino)-2-oxoacetyl)-1,2,4-trimethyl-N-(3,4,5-trifluorophenyl)-1H-pyrrole-3-carboxamide], the pEC50 in data set [1] was > 7.30. This molecule also showed a CC50 at 7 days in data set [2] of 5000 to 30000 nM.

Regarding `CCCOC1(CNC(=O)C(=O)c2c(C)c(C(=O)Nc3ccc(F)c(C)c3)c(C)n2C)CCCCC1` [Example 336, N-(4-fluoro-3-methylphenyl)-1,2,4-trimethyl-5-(2-oxo-2-(((1-propoxycyclohexyl)methyl)amino)acetyl)-1H-pyrrole-3-carboxamide], the negative-log EC50 (pEC50) in data set [1] is > 7.30. In addition, the CC50 at 7 days in data set [2] lay within 5000 to 30000 nM.

As to `Cc1cnc(C(C)(C)NC(=O)C(=O)c2cc(C(=O)Nc3ccc(F)c(C)c3)c3n2CCCC3)s1` [Example 413, N-(4-fluoro-3-methylphenyl)-3-(2-((2-(5-methylthiazol-2-yl)propan-2-yl)amino)-2-oxoacetyl)-5,6,7,8-tetrahydroindolizine-1-carboxamide], the pEC50 in data set [1] was 6.30 to 7.30. Also, in data set [2], the CC50 at 7 days was > 30000 nM.

Turning to `Cc1cc(NC(=O)c2c(C)c(C(=O)C(=O)NC3(CO)CC(F)(F)C3)n(CCF)c2C)ccc1F` [Example 179, 5-(2-((3,3-difluoro-1-(hydroxymethyl)cyclobutyl)amino)-2-oxoacetyl)-N-(4-fluoro-33-methylphenyl)-1-(2-fluoroethyl)-2,4-dimethyl-1H-pyrrole-3-carboxamide], in data set [1], the pEC50 was > 7.30. This molecule also returned a CC50 at 7 days in data set [2] of 5000 to 30000 nM.

In the case of `Cc1cc(NC(=O)c2c(C)c(C(=O)C(=O)NCC(O)c3ccsc3)n(C)c2C)ccc1F` (stereo not drawn) [Example 648, N-(4-fluoro-3-methylphenyl)-5-(2-((2-hydroxy-22-(thiophen-3-yl)ethyl)amino)-2-oxoacetyl)-1,2,4-trimethyl-1H-pyrrole-3-carboxamide], the pEC50 in data set [1] was > 7.30. Also, the CC50 at 7 days in data set [2] was > 30000 nM.

Turning to `Cc1c(C(=O)Nc2ccc(F)c(F)c2)c(C)n(C)c1C(=O)C(=O)Nc1ccccn1` [Example 294, N-(3,4-difluorophenyl)-1,2,4-trimethyl-5-(2-oxo-2-(pyridin-2-ylamino)acetyl)-1H-pyrrole-3-carboxamide], in data set [1], the pEC50 is 6.00 to 6.30. In addition, the CC50 at 7 days in data set [2] was > 30000 nM.

Turning to `Cc1cc(NC(=O)c2c(Cl)c(C(=O)C(=O)NC3(CO)CC(F)(F)C3)n3c2CCCC3)cnc1F` [Example 507, 2-chloro-3-(2-((3,3-difluoro-1-(hydroxymethyl)cyclobutyl)amino)-2-oxoacetyl)-N-(6-fluoro-5-methylpyridin-3-yl)-5,6,7,8-tetrahydroindolizine-1-carboxamide], in data set [1], the pEC50 is 6.30 to 7.30. Further, the CC50 at 7 days in data set [2] is > 30000 nM.

Turning to `Cc1cc(NC(=O)c2c(C)c(C(=O)C(=O)NC3CC(=O)Nc4ccccc43)n(C)c2C)ccc1F` (stereo not drawn) [Example 626, N-(4-fluoro-3-methylphenyl)-1,2,4-trimethyl-5-(2-oxo-2-((2-oxo-1,2,3,4-tetrahdyroquinolin-4-yl)amino)acetyl)-1H-pyrrole-3-carboxamide], the pEC50 in data set [1] is > 7.30. Moreover, the CC50 at 7 days in data set [2] is > 30000 nM.

Take `Cc1noc([C@H](C)NC(=O)C(=O)c2c(C)c(C(=O)Nc3ccc(F)c(F)c3)c3n2CCCC3)n1` [Example 464, (S)-N-(3,4-difluorophenyl)-2-methyl-3-(2-((1-(3-methyl-1,2,4-oxadiazol-5-yl)ethyl)amino)-2-oxoacetyl)-5,6,7,8-tetrahydroindolizine-1-carboxamide]: in data set [1], the pEC50 was 6.30 to 7.30. In addition, the CC50 at 7 days in data set [2] is > 30000 nM.

Regarding `Cc1c(C(=O)Nc2ccc(F)c(F)c2)c2n(c1C(=O)C(=O)NCCN)CCCC2` [Example 741, 3-(2-((2-aminoethyl)amino)-2-oxoacetyl)-N-(3,4-difluorophenyl)-2-methyl-5,6,7,8-tetrahydroindolizine-1-carboxamide], the pEC50 in data set [1] was 6.30 to 7.30. The CC50 at 7 days in data set [2] is > 30000 nM.

`Cc1cc(NC(=O)c2c(C)c(C(=O)C(=O)NC3(C)CCN(C(=O)c4cn(C)nc4C(F)F)CC3)n(C)c2C)ccc1F` [Example 708, 5-(2-((1-(3-(difluoromethyl)-1-methyl-1H-pyrazole-4-carbonyl)-4-methylpiperidin-4-yl)amino)-2-oxoacetyl)-N-(4-fluoro-3-methylphenyl)-1,2,4-trimethyl-1H-pyrrole-3-carboxamide]: the pEC50 in data set [1] was > 7.30. Besides, the CC50 at 7 days in data set [2] is > 30000 nM.

On to `Cc1cc(NC(=O)c2c(C)c(C(=O)C(=O)N[C@H]3CC[C@H](O)C3)n(CCF)c2C)ccc1F` [Example 194, N-(4-fluoro-3-methylphenyl)-1-(2-fluoroethyl)-5-(2-(((1S,3S)-3-hydroxycyclopentyl)amino)-2-oxoacetyl)-2,4-dimethyl-1H-pyrrole-3-carboxamide], for which, in data set [1], the negative-log EC50 (pEC50) was 6.30 to 7.30. Further, the 50% cytotoxic concentration (CC50) at 7 days in data set [2] was > 30000 nM.

Take `Cc1cc(NC(=O)c2c(C)c(C(=O)C(=O)N[C@@H]3c4ccccc4C[C@H]3O)n(C)c2C)ccc1F` [Example 261, N-(4-fluoro-3-methylphenyl)-5-(2-(((1R,2R)-2-hydroxy-2,3-dihydro-1H-inden-1-yl)amino)-2-oxoacetyl)-1,2,4-trimethyl-1H-pyrrole-3-carboxamide]: the pEC50 in data set [1] is > 7.30. In addition, the CC50 at 7 days in data set [2] lay within 500 to 4990 nM.

For the molecule `Cc1c(C(=O)Nc2ccnc(F)c2)c(C)n(C)c1C(=O)C(=O)NC(C)(C)C` [Example 89, 5-(2-(tert-butylamino)-2-oxoacetyl)-N-(2-fluoropyridin-4-yl)-1,2,4-trimethyl-1H-pyrrole-3-carboxamide], in data set [1], the pEC50 is > 7.30. The half-maximal cytotoxic concentration (CC50) at 7 days in data set [2] was > 30000 nM.

Regarding `Cc1cc(NC(=O)c2cc(C(=O)C(=O)NC3(C)COC3)n3c2CCCC3)ccc1F` [Example 405, N-(4-fluoro-3-metthylphenyl)-3-(2-((3-methyloxetan-3-yl)amino)-2-oxoacetyl)-5,6,7,8-tetrahydroindolizine-1-carboxamide], the negative logarithm of the EC50 (pEC50) in data set [1] was 6.30 to 7.30. Moreover, the CC50 at 7 days in data set [2] was > 30000 nM.

As a reminder, the pEC50 is the EC50 on a negative log10 scale, so that one unit is a factor of ten. By CC50 is commonly meant the concentration giving 50% cytotoxicity. Low readings indicate harm at low concentration, high ones better tolerance by the cells.
